Measurements from patent US11878961B2, “Next generation FKBP52 targeting drugs for the treatment of prostate and breast cancer” (Board of Regents, The University of Texas System, priority 2020, dated 2024).
“Also recorded” adds a separate entry of the source.

Tests used:
Assay type in all cases: cell-based
[1] = test system: progesterone receptor (PR); assay: PR-dependent luciferase reporter assay in T47D cells; details: result in words
Method: (§1) Referring to FIG. 21, hormone-induced, receptor-dependent luciferase reporter gene expression was assessed in the presence of a range of PC257 concentrations for androgen receptor (AR) and glucocorticoid receptor (GR) in MDAkb2 cells, and for progesterone receptor (PR) and estrogen receptor (ER) in T47D cells. The IC50 values for AR, GR and PR inhibition are shown.

androgen receptor (AR) = assay: AR-mediated luciferase reporter assay in MDA-kb2 cells (200 pM DHT)
Method: FIGS. 19A-19B depict identification of novel FKBP52-specific hit compounds in accordance with an illustrative embodiment. Structure-based drug design methodology and in silico library screening was used to identify 107 molecules targeting the FKBP52 PPIase pocket. Molecules were assessed for the ability to inhibit AR-mediated luciferase expression at a single high concentration (25 μM) in MDA-kb2 cells. […] MDA-kb2 cells were treated with 200 pM DHT with a range of derivative concentrations. Molecules in the low μM range will be tested in GR-, PR- and ER-Mediated luciferase assays in order to assess GR-dependent activity, PR-dependent activity and to test the effects of ER-regulated activity. A detailed evaluation of all candidate molecules will be tested in multiple cellular and animal models of prostate cancer.
FIGS. 20A-20D depict PC257 (ZINC3424402) which inhibits FKBP52-Specific AR, GR and ER-Mediated Activity in accordance with an illustrative embodiment. […]
as §1, with “The IC50 values for AR, GR and PR inhibition are shown.” left out

AR nuclear translocation = AR nuclear translocation by fluorescence microscopy in 22Rv1 cells; details: 22Rv1 prostate cancer cells, 75 μM, in the presence of hormone
Method: FIG. 24 depicts that PC257 Blocks Androgen-Dependent AR Nuclear Translocation in accordance with an illustrative embodiment.
Referring to FIG. 24, 22Rv1 prostate cancer cells were treated with or without 75 μM in the presence of hormone and AR and FKBP52 cellular localization was assessed by fluorescence microscopy.

[2] = test system: FKBP52-regulated AR activity; assay: DHT-induced AR-dependent luciferase reporter with or without exogenous FKBP52 in fkbp52-deficient cells; details: presence or absence of exogenous FKBP52; fkbp52-deficient 22Rv1, HeLa and mouse embryonic fibroblast cells
Method: Referring to FIG. 22, dihydrotestosterone (DHT)-induced, androgen receptor-dependent luciferase reporter gene expression was assessed in the presence of a range of PC257 concentrations in the presence or absence of exogenous FKBP52 expression in fkbp52-deficient 22Rv1, HeLa, and mouse embryonic fibroblast cells. The IC50 values are indicated. […] PC257 is anticipated to target the PPIase pocket, a highly conserved enzymatic pocket among the FKBP family of proteins.

[3] = test system: glucocorticoid receptor (GR); assay: GR-dependent luciferase reporter assay in MDA-kb2 cells (50 nM DEX); details: MDAkb2 cells, result in words
Method: (§2) FIGS. 20A-20D depict PC257 (ZINC3424402) which inhibits FKBP52-Specific AR, GR and ER-Mediated Activity in accordance with an illustrative embodiment. (FIG. 20A) An in silico screen lead to 107 lead molecules for functional screening that lead to an initial hit molecule PC257 (ZINC3424402). (FIG. 20B) MDA-kb2 cells expressing a stably AR- and GR-response luciferase reporter was treated with 200 pM DHT with a range of PC257 (ZINC3424402) concentrations (0, 0.01, 0.1, 1, 10, 25, 50, and 100 uM) for 16-18 hours in order to test for AR-dependent activity. The graphs represent an average of 4 independent receptor mediated luciferase receptor experiments. (FIG. 20C) MDA-kb2 cells expressing a stably AR- and GR-responsive luciferase reporter was treated with 50 nM DEX with a range of PC257 (ZINC3424402) concentrations (0, 0.01, 0.1, 1, 10, 25, 50, and 100 uM) for 16-18 hours in order to test for GR-dependent activity. The graphs represent an average of 4 independent receptor mediated luciferase receptor experiments. […]
as §1, with “The IC50 values for AR, GR and PR inhibition are shown.” left out

[4] = test system: endogenous AR-dependent gene expression; assay: Hormone-dependent FKBP51 and/or PSA protein levels by Western blot and densitometry; details: range of PC257 concentrations, normalized to GAPDH
Method: Referring to FIG. 23, hormone-dependent FKBP51 and/or PSA protein levels were assessed by Western blot and densitometry in the indicated cell lines in the presence of a range of PC257 concentrations. GAPDH was used as a loading control and the densitometry data were normalized to GAPDH.

estrogen receptor (ER) = assay: ER-regulated luciferase reporter assay in T47D-KBluc cells (10 pM E2); details: result in words
Method: as §2
as §1, with “The IC50 values for AR, GR and PR inhibition are shown.” left out

## Cc1cc(C(=O)COC(=O)Cc2n[nH]c(=O)c3ccccc23)c(C)n1C[C@H]1COc2ccccc2O1 [PC257, [2-[1-[[(3S)-2,3-Dihydro-1,4-benzodioxin-3-yl]methyl]-2,5-dimethylpyrrol-3-yl]-2-oxoethyl] 2-(4-oxo-3H-phthalazin-1-yl)acetate]
[1]
  inhibition of PR activity: specifically abrogates
Androgen receptor (AR); MDA-kb2 cell reporter assay, 200 pM DHT, full dose response, read-out: IC50, inhibition of AR activity
  IC50: 2000 nM
Androgen receptor (AR); MDA-kb2 cells, luciferase reporter, result in words
  inhibition of AR activity: inhibition of AR activity in the low micromolar range; also recorded: specifically abrogates
AR nuclear translocation
  AR nuclear translocation: significantly inhibits AR nuclear translocation
[2]
  preference for FKBP52-regulated AR activity: preferentially targets FKBP52-regulated AR activity with increased potency
[3]
  inhibition of GR activity: specifically abrogates
[4]
  endogenous AR-dependent gene expression (FKBP51/PSA protein): abrogates endogenous AR-dependent gene expression
Estrogen receptor (ER)
  inhibitory activity on ER: no inhibitory activity
